Measurements from US20260137795A1, “EXATECAN IMMUNOCONJUGATES” (Immunome, Inc., priority 2023, published 2026).
Counter-ions that a name gives are not always drawn.

Legend:
[1] = Human hepatocyte clearance (HHEP CL); type: in vitro ADME; parameters: half-life: dose or concentration left out as unconfirmed; conditions: for half-life: both sexes, human; for HHEP Cl T1/2: human hepatocytes intrinsic clearance, 90 min incubation
Protocol: Suspensions of human hepatocytes (from 10 mixed gender human donors, final concentration 0.5×10^6 cell/mL) in Williams' E medium are incubated for 90 min with a test compound (0.90% acetonitrile and 0.10% DMSO, final concentration […]) and positive controls (7-Ethoxycoumarin, 7-Hydroxycoumarin, 0.90% acetonitrile and 0.10% DMSO, final concentration […]), with constant shaking at about 600 rpm at 37° C., in an incubator at 5% CO2 and 95% humidity. The total volume of incubation was 200 μL. A sample ([…]) is taken out at TO, 15, 30, 60 and 90 min, which is added intermediately to the ice-cold stop solution (acetonitrile with 200 ng/ml of tobutamide and labetalol as internal standard) (125 μl), and vortexed at 500 rpm for 10 min, centrifuged at 3220×g for 20 min at 4° C. Analytical plates are sealed and stored at 4° C., until LCMS analysis. Viability of hepatocytes at pre-incubation is determined to be 84.5%.

[2] = physchem; parameters: dose or concentration left out as unconfirmed; conditions: PAMPA
[3] = tested on: Jeko-1; test: CTG assay of payloads (CellTiter-Glo cell viability); type: cell-based
Excerpt: The CTG assay is a method of determining the number of viable cells in culture based on quantitation of the ATP present, an indicator of metabolically active cells. The cell assay requires the addition of a single reagent, Cell Titer Glo, in which cells are lysed and generation of a luminescent signal is produced. The luminescent signal is proportional to the amount of ATP present. The amount of ATP is directly proportional to the number of cells present in culture. For our assay, cells are ensured to be in log-phase for either Jeko-1 or MDA-MB-468. Cells are transferred to 96 wells and treated with compounds in three-fold serial dilution starting from […] (10 points dilution), for 72 h. Cell viability is analyzed with CellTiter-Glo® Luminescent Cell Viability Assay (Promega) following manufactures' instruction. Percentage of viable cells in each compound concentration is determined by normalizing with the luminescence of vehicle control and plotted into percentage of viability versus dose response curve by nonlinear fit in GraphPad Prism software.

[4] = Human liver microsome clearance (HLM CL); type: in vitro ADME; parameters: half-life: dose or concentration left out as unconfirmed; conditions: for half-life: human, microsomes; for HLM Cl T1/2: human liver microsome clearance, 60 min incubation, NADPH
Protocol: Working solution is prepared by adding 5 μL of compound and control stock solution (10 mM in dimethyl sulfoxide, DMSO) to 495 μL of acetonitrile (ACN) (intermediate solution concentration: 100 μM, 99% CAN and 1% DMSO. The appropriate concentrations of microsome working solutions are prepared in 100 mM potassium phosphate buffer. After reaction plates containing mixtures of compound and microsomes are pre-incubated at 37° C., for 10 min. […] of 2 mM of NADPH and 2 mM of MgCl2 solution is added to start the reaction. The final concentrations of incubation medium are as follows: microsome-0.5 mg protein/mL, test compound/control […], NADPH—1 mM, MgCl2—1 mM, acetonitrile 0.99%, DMSO 0.01%. Incubations are performed at 37° C., for 60 min. Samples are taken out at T0, T5, T15, T30, T45 and T60, which is added intermediately to the ice-cold stop solution (acetonitrile with 200) ng/ml of tobutamide and labetalol as internal standard) (125 μl), shaken for 10 min, centrifuged at 4000 rpm for 20 min at 4° C. Analytical plates are analyzed by LCMS.
Human liver microsome clearance assay assess metabolism by the cytochrome P450 system (phase I enzymes). These enzymes oxidize substrates by incorporating oxygen atoms into hydrocarbons, thus causing the introduction of hydroxyl groups, or N- O- and S-dealkylation of substrates and forming more polar products easier to be cleared. Human hepatocyte clearance assay measures more broadly the overall cellular metabolism of the test compound (phase I and phase II enzyme pathways). Phase II enzymes catalyze the conjugation reaction of xenobiotic metabolites and charged species, such as glutathione, sulfate, glycine, or glucuronic acid to form even more polar compounds for easier clearance.

[5] = AC-SINS self-interaction (antibody developability); type: physicochemical; conditions: FIG. 19
Protocol: Antibody developability was assessed by performing an AC-SINS assay and evaluating the potential for self-interaction.
An initial assessment of antibody developability was performed by AC-SINS to evaluate the potential for self-interaction (FIG. 19).

[6] = PAMPA (Parallel Artificial Membrane Permeability Assay); parameters: dose or concentration left out as unconfirmed; conditions: pH 7.4

| Compound | half-life ([1]; hepatocytes) | Papp ([2]; pH 5) | Papp ([2]; pH 7.4) | IC50 ([3]; Homo sapiens, JeKo-1, 72 h) | half-life [4] | HHEP Cl T1/2 [1] | IC50 ([3]; 72 h) | HLM Cl T1/2 [4] | AC-SINS shift / self-interaction [5] | half-life ([1]; hepatocytes in suspension, read-out: HHEP Cl T1/2) | Papp [6] |
| --- | --- | --- | --- | --- | --- | --- | --- | --- | --- | --- | --- |
| CC[C@@]1(O)C(=O)OCc2c1cc1n(c2=O)Cc2c-1nc1cc(F)c(C)c3c1c2[C@H]([C@@H](CO)NC(C)C)CC3 (single isomer, unassigned) [Compound 17-115] | 90 min | 10.5 ×10⁻⁶ cm/s | 4.8 ×10⁻⁶ cm/s | 16 nM | 6 min | – | – | – | – | – | – |
| CC[C@@]1(O)C(=O)OCc2c1cc1n(c2=O)Cc2c-1nc1cc(F)c(C)c3c1c2[C@@H](NC(=O)CO)CC3 [Dxd, reference compound] | – | – | – | – | – | >217 min | 0.95 nM | 100 min | – | – | – |
| CC[C@@]1(O)C(=O)OCc2c1cc1n(c2=O)Cc2c-1nc1cc(F)c(C)c3c1c2[C@H]([C@@H](N)CO)CC3 (single isomer, unassigned) [Compound 16-108, hydrochloride] | 126 min | – | 0.002 ×10⁻⁶ cm/s | 8.3 nM | 110 min | – | – | – | – | – | – |
| CC[C@@]1(O)C(=O)OCc2c1cc1n(c2=O)Cc2c-1nc1cc(F)c(C)c3c1c2[C@H]([C@H](CCO)NC(C)C)CC3 (single isomer, unassigned) [Compound 14-94] | 68 min | 16.5 ×10⁻⁶ cm/s | 7.5 ×10⁻⁶ cm/s | 1.6 nM | 6.7 min | – | – | – | – | – | – |
| CC[C@@]1(O)C(=O)OCc2c1cc1n(c2=O)Cc2c-1nc1cc(F)c(C)c3c1c2[C@@H]([C@@H](CCO)NC(C)C)CC3 (single isomer, unassigned) [Compound 14-93] | 185 min | 20.6 ×10⁻⁶ cm/s | 9.2 ×10⁻⁶ cm/s | 2.6 nM | 46 min | – | – | – | – | – | – |
| CC[C@@]1(O)C(=O)OCc2c1cc1n(c2=O)Cc2c-1nc1cc(F)c(C)c3c1c2[C@@H]([C@H](CO)NC(C)C)CC3 (single isomer, unassigned) [Compound 17-112] | > 217 min | 14.4 ×10⁻⁶ cm/s | 6.3 ×10⁻⁶ cm/s | 17 nM | 62 min | – | – | – | – | – | – |
| CC[C@@]1(O)C(=O)OCc2c1cc1n(c2=O)Cc2c-1nc1cc(F)c(C)c3c1c2[C@H]([C@@H](CCO)N(C)C)CC3 (single isomer, unassigned) [Compound 15-99] | 208 min | 14.9 ×10⁻⁶ cm/s | 8.5 ×10⁻⁶ cm/s | 0.32 nM | 58 min | – | – | – | – | – | – |
| CC[C@@]1(O)C(=O)OCc2c1cc1n(c2=O)Cc2c-1nc1cc(F)c(C)c3c1c2[C@@H]([C@@H](N)CO)CC3 (single isomer, unassigned) [Compound 16-102, hydrochloride] | 105 min | – | 0.02 ×10⁻⁶ cm/s | 27.7 nM | 142 min | – | – | – | – | – | – |
| CC[C@@]1(O)C(=O)OCc2c1cc1n(c2=O)Cc2c-1nc1cc(F)c(C)c3c1c2[C@H]([C@H](N)CO)CC3 (single isomer, unassigned) [Compound 16-111, hydrochloride] | 133 min | 0.03 ×10⁻⁶ cm/s | 0.04 ×10⁻⁶ cm/s | 17.6 nM | 103 min | – | – | – | – | – | – |
| CC[C@@]1(O)C(=O)OCc2c1cc1n(c2=O)Cc2c-1nc1cc(F)c(C)c3c1c2[C@H]([C@H](CCO)N(C)C)CC3 (single isomer, unassigned) [Compound 15-98] | 78 min | 27 ×10⁻⁶ cm/s | 11.3 ×10⁻⁶ cm/s | 0.25 nM | 6.7 min | – | – | – | – | – | – |
| Adalimumab | – | – | – | – | – | – | – | – | low shift | – | – |
| CCc1c2c(nc3ccc(O)cc13)-c1cc3c(c(=O)n1C2)COC(=O)[C@]3(O)CC [SN-38, reference compound] | – | – | – | – | – | 77 min | 0.92 nM | 81 min | – | – | – |
| CC[C@@]1(O)C(=O)OCc2c1cc1n(c2=O)Cc2c-1nc1cc(F)c(C)c3c1c2[C@@H](N)CC3 [Exatecan] | – | > 107 ×10⁻⁶ cm/s | – | 0.4 nM | 75 min | – | – | – | – | 143 min | 16.3 ×10⁻⁶ cm/s |
| CC[C@@]1(O)C(=O)OCc2c1cc1n(c2=O)Cc2c-1nc1cc(F)c(C)c3c1c2[C@@H]([C@@H](CCO)N(C)C)CC3 (single isomer, unassigned) [Compound 15-97] | 113 min | 36.6 ×10⁻⁶ cm/s | 15.7 ×10⁻⁶ cm/s | 0.3 nM | 36 min | – | – | – | – | – | – |
| CC[C@@]1(O)C(=O)OCc2c1cc1n(c2=O)Cc2c-1nc1cc(F)c(C)c3c1c2[C@H]([C@H](CO)NC(C)C)CC3 (single isomer, unassigned) [Compound 17-114] | 48 min | 18.3 ×10⁻⁶ cm/s | 8 ×10⁻⁶ cm/s | 1.9 nM | 2.1 min | – | – | – | – | – | – |
| CC[C@@]1(O)C(=O)OCc2c1cc1n(c2=O)Cc2c-1nc1cc(F)c(C)c3c1c2[C@@H]([C@H](N)CO)CC3 (single isomer, unassigned) [Compound 16-105, hydrochloride] | 112 min | 0.07 ×10⁻⁶ cm/s | 0.06 ×10⁻⁶ cm/s | 10.2 nM | > 145 min | – | – | – | – | – | – |
| CC[C@@]1(O)C(=O)OCc2c1cc1n(c2=O)Cc2c-1nc1cc(F)c(C)c3c1c2[C@@H]([C@H](CCO)NC(C)C)CC3 (single isomer, unassigned) [Compound 14-92] | > 217 min | 17.7 ×10⁻⁶ cm/s | 8.4 ×10⁻⁶ cm/s | 1.7 nM | 57 min | – | – | – | – | – | – |
| CC[C@@]1(O)C(=O)OCc2c1cc1n(c2=O)Cc2c-1nc1cc(F)c(C)c3c1c2[C@@H]([C@@H](CO)NC(C)C)CC3 (single isomer, unassigned) [Compound 17-113] | 145 min | 26.9 ×10⁻⁶ cm/s | 9.7 ×10⁻⁶ cm/s | 4.2 nM | 32 min | – | – | – | – | – | – |
| CC[C@@]1(O)C(=O)OCc2c1cc1n(c2=O)Cc2c-1nc1cc(F)c(C)c3c1c2[C@H]([C@@H](CCO)NC(C)C)CC3 (single isomer, unassigned) [Compound 14-95] | 85 min | 12.7 ×10⁻⁶ cm/s | 6.6 ×10⁻⁶ cm/s | 1.7 nM | 29 min | – | – | – | – | – | – |
| CC[C@@]1(O)C(=O)OCc2c1cc1n(c2=O)Cc2c-1nc1cc(F)c(C)c3c1c2[C@@H]([C@H](CCO)N(C)C)CC3 (single isomer, unassigned) [Compound 15-96] | > 217 min | 16.7 ×10⁻⁶ cm/s | 15.6 ×10⁻⁶ cm/s | 0.52 nM | 96 min | – | – | – | – | – | – |
